According to paper PMC11358092, “Caspofungin enhances the potency of rifampin against Gram-negative bacteria” (Frontiers in Microbiology, 2024):
Structures can show the parent of a compound that is named as a salt.

System: E. coli MG1655
Experiment: High-throughput screening of FDA-approved drug library for antibiotic adjuvants (growth inhibition, OD600)
Assay type: cell-based, Escherichia coli
Conditions: library drug alone, LB medium, 96-well, 8 h static culture at 37°C, relative to PMBN (positive) and DMSO (negative) controls, %, table head prints no unit
Experimental: To screen for antibiotic adjuvants against GNB, […] library drugs or polymyxin B nonapeptide (PMBN, positive control) or dimethyl sulfoxide (DMSO, negative control). After 8 h of static culture at 37°C, the optical density at 600 nm (OD600) was measured using a microplate reader. Percentage inhibition was calculated as (ODN – ODX)/(ODN – ODP) × 100%, where ODX is the OD600 value for a test treated with drug X, and ODP and ODN are the OD600 values for the positive and negative control, respectively.

Question: How did the “Growth inhibition, Compound” value turn out when `COCC1=C(C(=O)O)N2C(=O)[C@@H](NC(=O)/C(=N\OC)c3csc(N)n3)[C@H]2SC1` [Cefpodoxime (free acid)] was run?
Answer: Its value is 108%.

Question: How did the “Growth inhibition, Compound” value turn out when `CCO/N=C(\C(=O)N[C@@H]1C(=O)N2C(C(=O)[O-])=C(Sc3nc(-c4cc[n+](C)cc4)cs3)CS[C@H]12)c1nsc(NP(=O)(O)O)n1` [Ceftaroline fosamil] was run?
Answer: Its value is 93%.

Question: With `CC(C)(O/N=C(\C(=O)N[C@@H]1C(=O)N2C(C(=O)[O-])=C(C[n+]3ccccc3)CS[C@H]12)c1csc(N)n1)C(=O)O` [Ceftazidime] as the compound, how does the “Growth inhibition, Compound” value read?
Answer: The value was 53%.

Question: `CO/N=C(\C(=O)N[C@@H]1C(=O)N2C(C(=O)OCOC(=O)C(C)(C)C)=C(Cn3nnc(C)n3)CS[C@H]12)c1csc(N)n1` [Cefteram pivoxil] was tested. Which “Growth inhibition, Compound” value did it give?
Answer: The value was 110%.

Question: With `Nc1nc(/C(=C/CC(=O)O)C(=O)N[C@@H]2C(=O)N3C(C(=O)O)=CCS[C@H]23)cs1.O.O` [Ceftibuten dihydrate] as the compound, how does the “Growth inhibition, Compound” value read?
Answer: Its value is 84%.

Question: `CO/N=C(/C(=O)N[C@@H]1C(=O)N2C(C(=O)O)=C(CSC(=O)c3ccco3)CS[C@H]12)c1csc(N)n1.Cl` [Ceftiofur hydrochloride] was tested. Which “Growth inhibition, Compound” value did it give?
Answer: Its value is 84%.

Question: How did the “Growth inhibition, Compound” value turn out when `CO/N=C(\C(=O)N[C@@H]1C(=O)N2C(C(=O)O)=CCS[C@H]12)c1csc(N)n1` [Ceftizoxime] was run?
Answer: Its value is 101%.

Question: `Cc1oc(=O)oc1COC(=O)N1CC[C@@H](N2CC/C(=C\C3=C(C(=O)O)N4C(=O)[C@@H](NC(=O)/C(=N/O)c5nsc(N)n5)[C@H]4SC3)C2=O)C1` [Ceftobiprole medocaril] was tested. Which “Growth inhibition, Compound” value did it give?
Answer: Its value is 106%.

Question: How did the “Growth inhibition, Compound” value turn out when `Nc1nc(/C(=N/O)C(=O)N[C@@H]2C(=O)N3C(C(=O)O)=C(/C=C4\CCN([C@@H]5CCNC5)C4=O)CS[C@H]23)ns1` [Ceftobiprole] was run?
Answer: Its value is 107%.

Question: How did the “Growth inhibition, Compound” value turn out when `CO/N=C(\C(=O)N[C@@H]1C(=O)N2C(C(=O)O)=C(CSc3nc(=O)c(=O)[nH]n3C)CS[C@H]12)c1csc(N)n1` [Ceftriaxone sodium] was run?
Answer: The value was 114%.

Question: Which “Growth inhibition, Compound” value does the source give for `CO/N=C(\C(=O)N[C@@H]1C(=O)N2C(C(=O)O)=C(COC(N)=O)CS[C@H]12)c1ccco1` [Cefuroxime sodium] here?
Answer: Its value is 95%.

Question: For `CC(=O)OCC1=C(C(=O)O)N2C(=O)[C@@H](NC(=O)Cc3cccs3)[C@H]2SC1` [Cephalothin sodium], which “Growth inhibition, Compound” value is on record?
Answer: Its value is 79%.

Question: Which “Growth inhibition, Compound” value does the source give for `CC(=O)OCC1=C(C(=O)O)N2C(=O)[C@@H](NC(=O)Cc3cccs3)[C@H]2SC1` [Cephalotin acid] here?
Answer: The value was 92%.

Question: For `CCCCCCCCCCCCCCCC[N+](C)(C)C` [Cetrimonium bromide], which “Growth inhibition, Compound” value is on record?
Answer: The value was 87%.

Question: Which “Growth inhibition, Compound” value does the source give for `Cc1ccc2c(Cl)cc(Cl)c(O)c2n1` [Chloquinan] here?
Answer: Its value is 119%.

Question: With `O=C(N[C@H](CO)[C@H](O)c1ccc([N+](=O)[O-])cc1)C(Cl)Cl` [Chloramphenicol] as the compound, how does the “Growth inhibition, Compound” value read?
Answer: The value was 109%.

Question: `[H]/N=C(\N/C(=N/[H])NCCCCCCNC(=N)NC(=N)Nc1ccc(Cl)cc1)Nc1ccc(Cl)cc1` [Chlorhexidine Acetate] was tested. Which “Growth inhibition, Compound” value did it give?
Answer: Its value is 103%.

Question: How did the “Growth inhibition, Compound” value turn out when `[H]/N=C(\N/C(=N/[H])NCCCCCCNC(=N)NC(=N)Nc1ccc(Cl)cc1)Nc1ccc(Cl)cc1` [Chlorhexidine hydrochloride] was run?
Answer: The value was 107%.

Question: How did the “Growth inhibition, Compound” value turn out when `[H]/N=C(\N/C(=N/[H])NCCCCCCNC(=N)NC(=N)Nc1ccc(Cl)cc1)Nc1ccc(Cl)cc1` [Chlorhexidine] was run?
Answer: The value was 101%.

Question: For `CN(C)[C@@H]1C(O)=C(C(N)=O)C(=O)[C@@]2(O)C(O)=C3C(=O)c4c(O)ccc(Cl)c4[C@@](C)(O)[C@H]3C[C@@H]12` [Chlortetracycline hydrochloride], which “Growth inhibition, Compound” value is on record?
Answer: Its value is 111%.

Question: Which “Growth inhibition, Compound” value does the source give for `Cc1cc(C2CCCCC2)n(O)c(=O)c1.NCCO` [Ciclopirox ethanolamine] here?
Answer: Its value is 114%.

Question: For `Cc1cc(C2CCCCC2)n(O)c(=O)c1` [Ciclopirox], which “Growth inhibition, Compound” value is on record?
Answer: The value was 70%.

Question: `CCn1nc(C(=O)O)c(=O)c2cc3c(cc21)OCO3` [Cinoxacin] was tested. Which “Growth inhibition, Compound” value did it give?
Answer: Its value is 88%.

Question: `CC[C@H]1OC(=O)[C@H](C)[C@@H](O[C@H]2C[C@@](C)(OC)[C@@H](O)[C@H](C)O2)[C@H](C)[C@@H](O[C@@H]2O[C@H](C)C[C@H](N(C)C)[C@H]2O)[C@](C)(OC)C[C@@H](C)C(=O)[C@H](C)[C@@H](O)[C@]1(C)O` [Clarithromycin] was tested. Which “Growth inhibition, Compound” value did it give?
Answer: Its value is 50%.

Question: With `Oc1c(I)cc(Cl)c2cccnc12` [Clioquinol] as the compound, how does the “Growth inhibition, Compound” value read?
Answer: The value was 94%.

Question: For `CN1C[C@@H]2C[C@H]1CN2c1cc2c(cc1F)c(=O)c(C(=O)O)cn2C1CC1.CS(=O)(=O)O` [Danofloxacin mesylate], which “Growth inhibition, Compound” value is on record?
Answer: The value was 100%.

Question: With `CC[C@H]1OC(=O)[C@H](C)[C@@H](O[C@H]2C[C@@](C)(OC)[C@@H](O)[C@H](C)O2)[C@H](C)[C@@H](O[C@@H]2O[C@H](C)C[C@H](N(C)C)[C@H]2O)[C@](C)(O)C[C@@H](C)C(=O)[C@H](C)[C@H]2OC(=O)O[C@@]21C` [Davercin] as the compound, how does the “Growth inhibition, Compound” value read?
Answer: Its value is 114%.

Question: For `CNC[C@H](O)[C@@H](O)[C@H](O)[C@H](O)CO.Nc1nc(-n2cc(C(=O)O)c(=O)c3cc(F)c(N4CC(O)C4)c(Cl)c32)c(F)cc1F` [Delafloxacin meglumine], which “Growth inhibition, Compound” value is on record?
Answer: The value was 103%.

Question: With `Nc1nc(-n2cc(C(=O)O)c(=O)c3cc(F)c(N4CC(O)C4)c(Cl)c32)c(F)cc1F` [Delafloxacin] as the compound, how does the “Growth inhibition, Compound” value read?
Answer: Its value is 105%.

Question: How did the “Growth inhibition, Compound” value turn out when `CN(C)[C@@H]1C(O)=C(C(N)=O)C(=O)[C@@]2(O)C(O)=C3C(=O)c4c(O)ccc(Cl)c4[C@@H](O)[C@H]3C[C@@H]12` [Demeclocycline hydrochloride] was run?
Answer: The value was 99%.

Question: With `Oc1ccc(Cl)c2cccnc12` [Dermofongin] as the compound, how does the “Growth inhibition, Compound” value read?
Answer: The value was 85%.

Question: With `COc1ccc(Cc2cnc(N)nc2N)cc1OC` [Diaveridine] as the compound, how does the “Growth inhibition, Compound” value read?
Answer: The value was 107%.

Question: Which “Growth inhibition, Compound” value does the source give for `Oc1ccc(Cl)cc1Cc1cc(Cl)ccc1O` [Dichlorophen] here?
Answer: The value was 95%.

Question: For `O=c1[nH]cnc2c1ncn2[C@H]1CC[C@@H](CO)O1` [Didanosine], which “Growth inhibition, Compound” value is on record?
Answer: The value was 41%.

Question: With `CN[C@@H]1[C@H](O[C@H]2[C@H](O[C@H]3[C@H](O)[C@@H](O)[C@H](NC(=N)N)[C@@H](O)[C@@H]3NC(=N)N)O[C@@H](C)[C@]2(O)CO)O[C@@H](CO)[C@H](O)[C@H]1O` [Dihydrostreptomycin sulfate] as the compound, how does the “Growth inhibition, Compound” value read?
Answer: The value was 106%.

Question: Which “Growth inhibition, Compound” value does the source give for `[O-][n+]1ccccc1SSc1cccc[n+]1[O-]` [Dipyrithione] here?
Answer: The value was 104%.

Question: How did the “Growth inhibition, Compound” value turn out when `CCN(CC)C(=S)SSC(=S)N(CC)CC` [Disulfiram] was run?
Answer: Its value is 78%.

Question: `C[C@@H](O)[C@H]1C(=O)N2C(C(=O)O)=C(S[C@@H]3CN[C@H](CNS(N)(=O)=O)C3)[C@H](C)[C@H]12.O` [Doripenem Hydrate] was tested. Which “Growth inhibition, Compound” value did it give?
Answer: The value was 77%.

Question: For `C[C@@H](O)[C@H]1C(=O)N2C(C(=O)O)=C(S[C@@H]3CN[C@H](CNS(N)(=O)=O)C3)[C@H](C)[C@H]12` [Doripenem], which “Growth inhibition, Compound” value is on record?
Answer: The value was 95%.

Question: With `CCO.C[C@H]1c2cccc(O)c2C(O)=C2C(=O)[C@]3(O)C(O)=C(C(N)=O)C(=O)[C@@H](N(C)C)[C@@H]3[C@@H](O)[C@@H]21.C[C@H]1c2cccc(O)c2C(O)=C2C(=O)[C@]3(O)C(O)=C(C(N)=O)C(=O)[C@@H](N(C)C)[C@@H]3[C@@H](O)[C@@H]21.Cl.Cl.O` [Doxycycline hyclate] as the compound, how does the “Growth inhibition, Compound” value read?
Answer: Its value is 112%.

Question: For `C[C@H]1c2cccc(O)c2C(=O)C2=C(O)[C@]3(O)C(=O)C(C(N)=O)=C(O)[C@@H](N(C)C)[C@@H]3[C@@H](O)[C@@H]21` [Doxycycline hydrochloride], which “Growth inhibition, Compound” value is on record?
Answer: The value was 114%.

Question: `C[C@H]1c2cccc(O)c2C(=O)C2=C(O)[C@]3(O)C(=O)C(C(N)=O)=C(O)[C@@H](N(C)C)[C@@H]3[C@@H](O)[C@@H]21` [Doxycycline] was tested. Which “Growth inhibition, Compound” value did it give?
Answer: The value was 118%.
